Source: the RepoRT retention time repository (doi:10.1016/j.chroma.2019.01.023)

Legend:
Conditions in all cases: stereoisomer not certain
[1] = HILIC, Merck SeQuant ZIC-pHILIC, 150 × 2.1 mm, 5 µm, 40 °C, 0.3 mL/min, estimated dead time 1.1 min; A: acetonitrile; B: water + 2.8 mM ammonium formate, pH 9; gradient (min/%B) 0/5 1/5 10/51 13/51 13.1/5 20/5
[2] = RP, Phenomenex Kinetex C18, 150 × 2.1 mm, 1.7 µm, 30 °C, 0.3 mL/min, estimated dead time 1.1 min; A: water + 0.1% formic acid, pH 3; B: acetonitrile + 0.1% formic acid, pH 3; gradient (min/%B) 0/2 14/100 17/100 17.1/2 25/2
[3] = HILIC, Waters ACQUITY UPLC BEH Amide, 150 × 2.1 mm, 1.7 µm, 40 °C, 0.5 mL/min, estimated dead time 0.66 min; A: 5% water + 95% acetonitrile; B: 70% water + 30% acetonitrile + 10 mM ammonium formate, pH 6.5; gradient (min/%B) 0/0 2/0 20/70 23/70 24/0 31/0

Row | SMILES | LC retention time [1] | LC retention time [2] | LC retention time [3]
1 | O=C(O)c1ccc2ccccc2c1[O-] [1-HYDROXY-2-NAPHTHOATE] | 1.49 min | 9.28 min | 
2 | O=C(O)c1cccc(O)c1[O-] [2,3-DIHYDROXYBENZOATE] | 5.74 min | 4.92 min | 
3 | O=C(O)c1cc(O)ccc1[O-] [2,5-DIHYDROXYBENZOATE] | 6.29 min | 4.46 min | 
4 | O=c1cccc(O)[nH]1 [2,6-DIHYDROXYPYRIDINE] | 6.67 min | 1.95 min | 4.81 min
5 | Nc1ccccc1O [2-AMINOPHENOL] | 7.38 min | 1.52 min | 0.87 min
6 | CSCCC(O)C(=O)O (configuration not stated) [2-HYDROXY-4-(METHYLTHIO)BUTANOATE] | 4.59 min | 3.82 min | 1.29 min
7 | O=C(O)Cc1ccccc1O [2-HYDROXYPHENYLACETATE] |  | 4.46 min | 0.9 min
8 | CC(CCC(=O)O)C(=O)O (configuration not stated) [2-METHYLGLUTARATE] | 7.37 min | 3.85 min | 5.2 min
9 | O=C(O)C(O)c1ccc(O)c(O)c1 (configuration not stated) [3,4 DIHYDROXYMANDELATE] | 8.57 min | 1.7 min | 
10 | O=C(O)Cc1ccc(O)c(O)c1 [3,4-DIHYDROXYPHENYLACETATE] | 7.81 min | 3.93 min | 
11 | OCC(O)c1ccc(O)c(O)c1 (configuration not stated) [3,4-DIHYDROXYPHENYLGLYCOL] | 6.22 min | 1.82 min | 
12 | O=C([O-])CCc1ccccc1O [3-(2-HYDROXYPHENYL)PROPANOATE] | 2.12 min | 6.02 min | 1.02 min
13 | Nc1cc(C(=O)O)ccc1[O-] [3-AMINO-4-HYDROXYBENZOATE] | 7.39 min | 1.52 min | 1.84 min
14 | Nc1c([O-])cccc1C(=O)O [3-HYDROXYANTHRANILATE] | 6.24 min | 3.68 min | 1.39 min
15 | O=C(O)c1cccc([O-])c1 [3-HYDROXYBENZOATE] | 6.39 min | 4.87 min | 
16 | O=C(O)Cc1cccc(O)c1 [3-HYDROXYPHENYLACETATE] | 5.88 min | 4.82 min | 
17 | COc1cc(C(O)C(=O)O)ccc1O (configuration not stated) [3-METHOXY-4-HYDROXYMANDELATE] | 6.9 min | 2.94 min | 
18 | CCC(C)C(=O)C(=O)[O-] (configuration not stated) [3-METHYL-2-OXOVALERATE] |  | 4.14 min | 1.83 min
19 | NC(N)=NCCCC(=O)O [4-GUANIDINOBUTANOATE] |  | 1.39 min | 10.1 min
20 | O=Cc1ccc(O)cc1 [4-HYDROXYBENZALDEHYDE] | 1.43 min | 5.11 min | 2.67 min
21 | O=C(O)CCCCCCCCCO [10-HYDROXYDECANOATE] | 1.44 min | 7.13 min | 1 min
22 | Nc1ncnc2c1ncn2C1OC(CO)C2OP(=O)(O)OC21 (configuration not stated) [ADENOSINE 2',3'-CYCLIC PHOSPHATE] | 6.94 min | 1.73 min | 6.69 min

Row | SMILES | LC retention time [1] | LC retention time [2] | LC retention time [3]
23 | Nc1ncnc2c1ncn2C1OC(COP(=O)(O)O)C(O)C1O (configuration not stated) [ADENOSINE-MONOPHOSPHATE] | 8.23 min | 1.41 min | 
24 | Nc1ncnc2c1ncn2C1OC(CO)C(O)C1O (configuration not stated) [ADENOSINE] | 5.92 min | 2.34 min | 3.85 min
25 | O=C([O-])CCCCC(=O)[O-] [ADIPATE] | 8.71 min | 3.73 min | 5.26 min
26 | NC(=O)c1ncn(C2OC(COP(=O)(O)O)C(O)C2O)c1N (configuration not stated) [AICAR] | 8.82 min | 1.38 min | 
27 | Nc1ccccc1S(=O)(=O)O [ANILINE-2-SULFONATE] | 5.89 min | 2.04 min | 
28 | NC(=O)c1ccc[n+](C2OC(COP(=O)(O)OP(=O)([O-])OCC3OC(n4cnc5c(N)ncnc54)C(O)C3O)C(O)C2O)c1 (stereo not drawn) [BETA-NICOTINAMIDE ADENINE DINUCLEOTIDE] | 8.52 min | 1.4 min | 
29 | C=CC1=C(C)C(C=c2[nH]c(=Cc3[nH]c(C=C4NC(=O)C(C)=C4C=C)c(C)c3CCC(=O)O)c(CCC(=O)O)c2C)=NC1=O [BILIVERDIN] |  | 9.08 min | 1.13 min
30 | CC(O)(CC(=O)O)C(=O)O (configuration not stated) [CITRAMALATE] | 8.8 min | 1.94 min | 
31 | O=C(O)CC(O)(CC(=O)O)C(=O)O [CITRATE] | 10.2 min | 1.57 min | 
32 | Nc1ccn(C2OC(CO)C(O)C2O)c(=O)n1 (configuration not stated) [CYTIDINE] | 7.29 min | 1.39 min | 6.3 min
33 | Nc1ncnc2c1ncn2C1CC(O)C(COP(=O)(O)O)O1 (configuration not stated) [DEOXYADENOSINE MONOPHOSPHATE] | 7.95 min | 1.55 min | 
34 | Nc1ccn(C2CC(O)C(COP(=O)(O)O)O2)c(=O)n1 (configuration not stated) [DEOXYCYTIDINE MONOPHOSPHATE] | 8.61 min | 1.4 min | 
35 | Nc1nc2c(ncn2C2CC(O)C(COP(=O)(O)O)O2)c(=O)[nH]1 (configuration not stated) [DEOXYGUANOSINE-MONOPHOSPHATE] | 8.92 min | 1.67 min | 
36 | O=c1ccn(C2CC(O)C(COP(=O)(O)O)O2)c(=O)[nH]1 (configuration not stated) [DEOXYURIDINE-MONOPHOSPHATE] | 8.2 min | 1.41 min | 
37 | CCCCCCCCCC(=O)OCC(COP(=O)([O-])OCC[N+](C)(C)C)OC(=O)CCCCCCCCC (configuration not stated) [DIDECANOYL-GLYCEROPHOSPHOCHOLINE] | 1.65 min | 12.8 min | 5.15 min
38 | NCCc1ccc(O)c(O)c1 [DOPAMINE] |  | 1.62 min | 8.68 min
39 | Cc1cn(C2CC(O)C(COP(=O)(O)OP(=O)(O)OC3OC(CO)C(O)C(O)C3O)O2)c(=O)[nH]c1=O [DTDP-D-GLUCOSE] | 8.93 min | 1.52 min | 
40 | O=C(O)C=CC(=O)O [FUMARATE] | 9.5 min | 1.88 min | 
41 | O=C(O)CCCC(=O)O [GLUTARATE] |  | 2.92 min | 2 min
42 | C[N+](C)(C)CC(CC(=O)[O-])OC(=O)CCCC(=O)O (configuration not stated) [GLUTARYLCARNITINE] |  | 2.56 min | 11.9 min
43 | NC(CCC(=O)NC(CS)C(=O)NCC(=O)O)C(=O)O (configuration not stated) [GLUTATHIONE REDUCED] | 8.59 min | 1.46 min | 
44 | Nc1nc2c(ncn2C2OC(COP(=O)(O)O)C(O)C2O)c(=O)[nH]1 (configuration not stated) [GUANOSINE MONOPHOSPHATE] | 9.41 min | 1.41 min | 

Row | SMILES | LC retention time [1] | LC retention time [2] | LC retention time [3]
45 | O=C(O)Cc1cc(O)ccc1O [HOMOGENTISATE] | 6.88 min | 3.31 min | 1.27 min
46 | COc1cc(CC(=O)O)ccc1O [HOMOVANILLATE] | 4.78 min | 4.81 min | 1.59 min
47 | Oc1ccc(O)cc1 [HYDROQUINONE] | 6.29 min | 4.46 min | 
48 | O=C(O)C(O)Cc1ccc(O)cc1 (configuration not stated) [HYDROXYPHENYLLACTATE] | 6.83 min | 3.97 min | 1.4 min
49 | CCC(C)C(N)C(=O)O (configuration not stated) [ISOLEUCINE] | 7.18 min | 1.9 min | 
50 | CC(CCC(=O)O)C1CCC2C3CCC4CC(O)CCC4(C)C3CCC12C (configuration not stated) [LITHOCHOLATE] |  | 12.8 min | 0.84 min
51 | O=C([O-])C=CC(=O)[O-] [MALEATE] | 2.45 min | 1.53 min | 
52 | O=C([O-])C(O)c1ccccc1 (configuration not stated) [MANDELATE] | 4.83 min | 4.45 min | 
53 | CC1(O)CCOC(=O)C1 (configuration not stated) [MEVALOLACTONE] |  | 2.04 min | 0.89 min
54 | CC(=O)NC(C)C(=O)O (configuration not stated) [N-ACETYLALANINE] |  | 1.97 min | 4.75 min
55 | CC(=O)NC(CS)C(=O)O (configuration not stated) [N-ACETYLCYSTEINE] |  | 2.62 min | 1.88 min
56 | O=C(O)CCCCCCCCCCCO [OMEGA-HYDROXYDODECANOATE] |  | 8.62 min | 0.84 min
57 | CCC(NC(=O)CCC([NH3+])C(=O)[O-])C(=O)NCC(=O)[O-] (configuration not stated) [OPHTHALMATE] | 8.32 min | 1.58 min | 
58 | O=C(O)Cc1ccc(O)cc1 [P-HYDROXYPHENYLACETATE] | 5.76 min | 4.59 min | 
59 | O=C(O)C(=O)Cc1ccccc1 [PHENYLPYRUVATE] | 5.27 min | 4.94 min | 
60 | Oc1ccccc1O [PYROCATECHOL] | 8.04 min | 3.77 min | 
61 | O=C(C=Cc1ccc(O)c(O)c1)OC(Cc1ccc(O)c(O)c1)C(=O)O (configuration not stated) [ROSMARINATE] | 7.55 min | 6.25 min | 
62 | Nc1ncnc2c1ncn2C1OC(CSCCC([NH3+])C(=O)[O-])C(O)C1O (configuration not stated) [S-ADENOSYLHOMOCYSTEINE] | 8.51 min | 1.97 min | 
63 | CC=CC=CC(=O)[O-] [SORBATE] | 1.73 min | 4.51 min | 
64 | O=C(O)CCC(=O)O [SUCCINATE] |  | 1.95 min | 3.9 min
65 | O=c1[nH]c(=O)c2ncn(C3OC(COP(=O)(O)O)C(O)C3O)c2[nH]1 (configuration not stated) [XANTHOSINE-MONOPHOSPHATE] | 10.2 min | 1.45 min | 
